Measurements taken from US8722731B2, “Furanyl compounds and the use thereof” (NovoMedix, LLC, priority 2010, dated 2014).
pIC50: −log10 of the molar value. Read-outs that look alike come from different tables or passages of the source.

Key:
[1] = system: triple negative breast cancer cell line MDA-MB-468; assay: IC50 cell-based assay, adherent cells, MDA-MB-468; conditions: Homo sapiens
Description: (§1) In one embodiment, the IC50s of the compounds provided herein were determined in cell-based assays using adherent cells. In one embodiment, the activity of the compounds provided herein were determined in a cell-based assay using the triple negative breast cancer cell line MDA-MB-468. In one embodiment, the adherent cells used in the cell-based assays may be a cell type selected from Table 1. In one embodiment, the cell-based assay may be carried out as provided herein. On day 0, cells were seeded at 20,000 cells per well in 100 µL of media into individual wells of a 96-well tissue culture plate. The next day, compounds were diluted to twice the desired final concentration and added in 100 µL of media for a final volume of 200 μL. Standard solutions for each compound were prepared at 1000× concentration in DMSO. The highest concentration was 30 mM. Serial 1:1 dilutions were made from there for a 6- or 9-point curve (e.g., 30 mM, 15 mM, 7.5 mM, etc). Compounds were then diluted 1:500 in media, and 100 µL of the resulting solution was added to each well for a final dilution of 1:1000. Each concentration of compound was tested in triplicate. Cells were incubated at 37° C. with 5% CO2. After 72 hours, 20 μL of CellTiter 96 Aqueous One Solution Cell Proliferation Assay (Promega) was added to each well. Cells were placed back in the incubator, and the absorbance at 490 nm was read after 2-3 hours. The concentration of compound that decreased the number of metabolically active cells by 50% was determined and reported as the IC50. “Percent Viability” was determined by subtracting the average background value (media only) and expressed as a ratio to the average value obtained from cells treated with only DMSO.
The IC50s of the compounds provided herein were determined in cell-based assay using triple negative breast cancer cell line MDA-MB-468.

SupB15 = assay: IC50 cell-based assay, suspension cells, SupB15; conditions: Homo sapiens, SUP-B15, Leukemia, B-ALL (Philadelphia chromosome+), read-out: IC50 of Compounds in Suspension Cell Types
Description: as §1
(§2) In one embodiment, the IC50s of the compounds provided herein were determined in cell-based assays using suspension cells. In one embodiment, the activity of the compounds provided herein were determined in a cell-based assay using the JeKo-1 cell line (mantle cell lymphoma) or the Pfeiffer cell line (diffuse large B-cell lymphoma). In one embodiment, the suspension cells used in the cell-based assays may be a cell type selected from Table 2. Assays with suspension cells were similar except that 40,000-60,000 cells were added to each well and compounds were added immediately after cell plating.

Kg1a = assay: IC50 cell-based assay, suspension cells, Kg1a; conditions: Homo sapiens, KG-1a, Leukemia, AML, read-out: IC50 of Compounds in Suspension Cell Types
Description: as §1, §2

Pfeiffer = assay: IC50 cell-based assay, suspension cells, Pfeiffer; conditions: Homo sapiens, Lymphoma, Diffuse large b-cell, read-out: IC50 of Compounds in Suspension Cell Types
Description: as §1, §2

HL-60 = assay: IC50 cell-based assay, suspension cells, HL-60; conditions: Homo sapiens, Leukemia, AML, read-out: IC50 of Compounds in Suspension Cell Types
Description: as §1, §2

Z138, JeKo-1 = assay: IC50 cell-based assay, suspension cells, Z138, JeKo-1; conditions: Lymphoma, Mantle cell, read-out: IC50 of Compounds in Suspension Cell Types
Description: as §1, §2

MHH-CALL-4 = assay: IC50 cell-based assay, suspension cells, MHH-CALL-4; conditions: MHHCALL4, Leukemia, B-ALL (CRLF2 Hi), read-out: IC50 of Compounds in Suspension Cell Types
Description: as §1, §2

Panc-1 = assay: IC50 cell-based assay, adherent cells, Panc-1; conditions: Homo sapiens, Pancreas, epitheloid carcinoma, 72 hours, read-out: IC50 of Compounds in Adherent Cell Types
Description: as §1

MCF-7 = assay: IC50 cell-based assay, adherent cells, MCF-7; conditions: Homo sapiens, MCF7, Breast, ER+, 72 hours, read-out: IC50 of Compounds in Adherent Cell Types
Description: as §1

1937 = assay: IC50 cell-based assay, adherent cells, 1937; conditions: Breast, triple neg, 72 hours, read-out: IC50 of Compounds in Adherent Cell Types
Description: as §1

MDA-MB-361 = assay: IC50 cell-based assay, adherent cells, MDA-MB-361; conditions: Homo sapiens, Breast, Brain met Her2-neu + ER +, 72 hours, read-out: IC50 of Compounds in Adherent Cell Types
Description: as §1

MDA-MB-231 = assay: IC50 cell-based assay, adherent cells, MDA-MB-231; conditions: Homo sapiens, Breast, triple neg, 72 hours, read-out: IC50 of Compounds in Adherent Cell Types
Description: as §1

SKBR-3 = assay: IC50 cell-based assay, adherent cells, SKBR-3; conditions: Homo sapiens, SK-BR-3, Breast, ER−, 72 hours, read-out: IC50 of Compounds in Adherent Cell Types
Description: as §1

Nalm-6 = assay: IC50 cell-based assay, suspension cells, Nalm-6; conditions: Homo sapiens, Leukemia, B-ALL, read-out: IC50 of Compounds in Suspension Cell Types
Description: as §1, §2

U87-MG = assay: IC50 cell-based assay, adherent cells, U87-MG; conditions: Homo sapiens, U-87 MG, Brain, glioblastoma, 72 hours, read-out: IC50 of Compounds in Adherent Cell Types
Description: as §1

Hep-G2 = assay: IC50 cell-based assay, adherent cells, Hep-G2; conditions: Homo sapiens, HepG2, Liver, hepatocellular carcinoma, 72 hours, read-out: IC50 of Compounds in Adherent Cell Types
Description: as §1

H-460 = assay: IC50 cell-based assay, adherent cells, H-460; conditions: Homo sapiens, NCI-H460, Lung, large cell carcinoma, 72 hours, read-out: IC50 of Compounds in Adherent Cell Types
Description: as §1

A549 = assay: IC50 cell-based assay, adherent cells, A549; conditions: Homo sapiens, Lung, NSCLC, 72 hours, read-out: IC50 of Compounds in Adherent Cell Types
Description: as §1

AsPC-1 = assay: IC50 cell-based assay, adherent cells, AsPC-1; conditions: Homo sapiens, ASPC1, Pancreas, carcinoma, 72 hours, read-out: IC50 of Compounds in Adherent Cell Types
Description: as §1

Nalm-6-VR = assay: IC50 cell-based assay, suspension cells, Nalm-6-VR; conditions: Leukemia, B-ALL, Vincristine resistant, read-out: IC50 of Compounds in Suspension Cell Types
Description: as §1, §2

A431 = assay: IC50 cell-based assay, adherent cells, A431; conditions: Homo sapiens, A-431, Skin, epidermoid carcinoma, 72 hours, read-out: IC50 of Compounds in Adherent Cell Types
Description: as §1

FaDu = assay: IC50 cell-based assay, adherent cells, FaDu; conditions: Homo sapiens, Pharynx, squamous cell, 72 hours, read-out: IC50 of Compounds in Adherent Cell Types
Description: as §1

SK-MEL-28 = assay: IC50 cell-based assay, adherent cells, SK-MEL-28; conditions: Homo sapiens, Melanoma, 72 hours, read-out: IC50 of Compounds in Adherent Cell Types
Description: as §1

HT-29 = assay: IC50 cell-based assay, adherent cells, HT-29; conditions: Homo sapiens, Colorectal, adenocarcinoma, 72 hours, read-out: IC50 of Compounds in Adherent Cell Types
Description: as §1

RT-4 = assay: IC50 cell-based assay, adherent cells, RT-4; conditions: Homo sapiens, Bladder, papilloma, 72 hours, read-out: IC50 of Compounds in Adherent Cell Types
Description: as §1

OVCAR-3 = assay: IC50 cell-based assay, adherent cells, OVCAR-3; conditions: Homo sapiens, Ovarian, adenocarcinoma, 72 hours, read-out: IC50 of Compounds in Adherent Cell Types
Description: as §1

Caki-1 = assay: IC50 cell-based assay, adherent cells, Caki-1; conditions: Homo sapiens, Kidney, clear cell carc., skin met, 72 hours, read-out: IC50 of Compounds in Adherent Cell Types
Description: as §1

[2] = MDA-MB-468, Breast, triple neg, 72 hours, Table 1, read-out: IC50 of Compounds in Adherent Cell Types
[3] = MDA-MB-468 cells, Table 3, read-out: IC50 of Compounds in MDA-MB-468 Cells

Structure (SMILES) | pIC50 [1, 2] | pIC50 [1, 3] | pIC50 (SupB15) | pIC50 (Kg1a) | pIC50 (Pfeiffer) | pIC50 (HL-60) | pIC50 (Z138, JeKo-1) | pIC50 (MHH-CALL-4) | pIC50 (Panc-1) | pIC50 (MCF-7) | pIC50 1937 | pIC50 (MDA-MB-361) | pIC50 (MDA-MB-231) | pIC50 (SKBR-3) | pIC50 (Nalm-6) | pIC50 (U87-MG) | pIC50 (Hep-G2) | pIC50 (H-460) | pIC50 (A549) | pIC50 (AsPC-1) | further results
Cc1oc(-c2ccccc2)cc1C(=O)Nc1cc(C(F)(F)F)cc(C(F)(F)F)c1 [Compound 4, 2-Methyl-5-phenyl-furan-3-carboxylic acid (3,5-bis-trifluoromethyl-phenyl)-amide] | 4.70 to 5.00 | < 4.52 | < 4.70 | < 4.70 | < 4.70 | < 4.70 | < 4.70 | < 4.70 | < 4.70 | < 4.70 | < 4.70 | < 4.70 | < 4.70 | < 4.70 | < 4.70 | – | – | – | – | – | –
O=C(Nc1cc(F)cc(C(F)(F)F)c1)c1cc(-c2ccc(Br)cc2)oc1C(F)(F)F [Compound 7, 5-(4-Bromo-phenyl)-2-trifluoromethyl-furan-3-carboxylic acid (3-fluoro-5-trifluoromethyl-phenyl)-amide] | > 5.30 | 5.30 | 5.00 to 5.30 | 4.70 to 5.00 | 4.70 to 5.00 | 5.00 to 5.30 | 5.00 to 5.30 | 4.70 to 5.00 | < 4.70 | 5.00 to 5.30 | 5.00 to 5.30 | < 4.70 | 4.70 to 5.00 | 5.00 to 5.30 | 5.00 to 5.30 | < 4.70 | 4.70 to 5.00 | < 4.70 | < 4.70 | 4.70 to 5.00 | pIC50 (Nalm-6-VR): 4.70 to 5.00; pIC50 (A431): 4.70 to 5.00; pIC50 (FaDu): 5.00 to 5.30; pIC50 (SK-MEL-28): 4.70 to 5.00; pIC50 (HT-29): < 4.70; pIC50 (RT-4): < 4.70; pIC50 (OVCAR-3): 5.00 to 5.30
O=C(Nc1cc(F)cc(C(F)(F)F)c1)c1cc(-c2ccc(Cl)cc2)oc1C(F)(F)F [Compound 5, 5-(4-Chloro-phenyl)-2-trifluoromethyl-furan-3-carboxylic acid (3-fluoro-5-trifluoromethyl-phenyl)-amide] | > 5.30 | 5.40 | > 5.30 | 5.00 to 5.30 | 5.00 to 5.30 | > 5.30 | > 5.30 | 5.00 to 5.30 | > 5.30 | > 5.30 | 5.00 to 5.30 | 4.70 to 5.00 | 5.00 to 5.30 | > 5.30 | > 5.30 | 4.70 to 5.00 | 4.70 to 5.00 | < 4.70 | 5.00 to 5.30 | 5.00 to 5.30 | pIC50 (Caki-1): 5.00 to 5.30; pIC50 (Nalm-6-VR): > 5.30; pIC50 (A431): < 4.70; pIC50 (FaDu): 5.00 to 5.30; pIC50 (SK-MEL-28): 5.00 to 5.30; pIC50 (HT-29): < 4.70; pIC50 (RT-4): < 4.70; pIC50 (OVCAR-3): 5.00 to 5.30
COc1ccc(-c2cc(C(=O)Nc3cc(C(F)(F)F)cc(C(F)(F)F)c3)c(C(F)(F)F)o2)cc1 [Compound 8, 5-(4-Methoxy-phenyl)-2-trifluoromethyl-furan-3-carboxylic acid (3,5-bis-trifluoromethyl-phenyl)-amide] | > 5.30 | 5.70 | – | – | – | – | – | – | – | – | – | – | – | – | > 5.30 | – | – | – | – | – | –
O=C(Nc1cc(C(F)(F)F)cc(C(F)(F)F)c1)c1cc(-c2ccc(Br)cc2)oc1C(F)(F)F [Compound 3, 5-(4-Bromophenyl)-N-(3,5-bistrifluoromethylphenyl)-2-trifluoromethylfuran-3-carboxamide] | > 5.30 | 5.82 | > 5.30 | > 5.30 | > 5.30 | > 5.30 | > 5.30 | > 5.30 | 5.00 to 5.30 | 5.00 to 5.30 | > 5.30 | > 5.30 | 5.00 to 5.30 | > 5.30 | 5.00 to 5.30 | 5.00 to 5.30 | 5.00 to 5.30 | 4.70 to 5.00 | > 5.30 | 5.00 to 5.30 | pIC50 (Caki-1): 5.00 to 5.30; pIC50 (Nalm-6-VR): > 5.30; pIC50 (A431): 5.00 to 5.30; pIC50 (FaDu): > 5.30; pIC50 (SK-MEL-28): 5.00 to 5.30; pIC50 (HT-29): 4.70 to 5.00; pIC50 (RT-4): < 4.70; pIC50 (OVCAR-3): > 5.30
